According to article PMC12649549, “Sequence Permutation Generated Lysine and Tryptophan-Rich Antimicrobial Peptides with Enhanced Therapeutic Index” (Antibiotics, 2025):
Where two headings read alike, the source gives them in different places.

What was measured:
[1] = tested on: A. baumannii 14B00100 (Acinetobacter sp., BCRC number 14B0100)
Method: (§1) The antibacterial and salt-resistant activity of the peptides was tested using Escherichia coli (ATCC 25922), Pseudomonas aeruginosa Migula (ATCC 27853), Acinetobacter sp. (BCRC number 14B0091, BCRC number 14B0097, and BCRC number 14B0100), and Staphylococcus aureus sp. strains (ATCC 25923, ATCC 33591, ATCC 33592, ATCC 33593, and ATCC 6538). All bacteria were obtained from the Food Industry Research and Development Institute (Hsinchu, Taiwan) and cultured in sterilized Müller-Hinton (MH) broth at 37 °C and 200 rpm for 8 h. The inoculum concentrations were determined by measuring the optical density at 600 nm (OD 600 = 1, approximately 10^8 CFU/mL) using an Ultrospec 2100 pro UV-Visible spectrophotometer (Biochrom Ltd., Cambridge, UK) after 8 h of culture.
(§2) The antibacterial activities of the peptides in Müller-Hinton (MH) broth and modified LYM broth were determined using the standard broth microdilution method as per Clinical and Laboratory Standards Institute (CLSI) guidelines. The LYM broth was prepared with specific components and adjusted to different conditions, including varying concentrations of NaCl and MgCl2, and different pH levels. To prepare the LYM broth, 5.4 mM KCl, 5.6 mM Na2HPO4, 0.5 mM MgSO4, and 1.0 mM sodium citrate were added. Additionally, 0.4 mg of ZnCl2, 2.0 mg of FeCl3·6H2O, 0.1 mg of CuSO4·5H2O, 0.1 mg of MnSO4·H2O, 0.1 mg of Na2B4O7∙10H2O, 700 mg of amino acid mixtures without tryptophan (Takara Bio Inc., San Jose, CA, USA), and 20 mg of L-tryptophan were added per liter of medium. The pH was adjusted to 7.4, and a vitamin mixture (100X, Sigma) and glucose concentration of 2% were added. For different conditions of LYM broth, NaCl concentrations of 300, 200, 150, and 50 mM, MgCl2 concentrations of 2.5, 1.5, and 0.5 mM, and pH levels of 6.5, 5.5, and 4.5 were adjusted. Bacterial strains were incubated in MH broth overnight, regrown, and diluted to a final concentration of 5 × 10^5 CFU/mL. Peptides were added to each well at final concentrations of 50, 25, 12.5, 6.25, 3.13, 1.56, and 0.78 µg/mL, and 99 µL of diluted microbes was loaded into each well of a polypropylene 96-well plate. […] The Morpheus HeatMap software (https://software.broadinstitute.org/morpheus/) was used to display MIC values on a color scale. All experiments were independently repeated three times.

[2] = tested on: Pseudomonas aeruginosa Migula (ATCC 27853)
Method: as §1, §2

[3] = tested on: S. aureus ATCC 6538
Method: as §1, §2

[4] = tested on: S. aureus ATCC 33592
Method: as §1
as §2, with “For different conditions of LYM broth, NaCl concentrations of 300, 200, 150, and 50 mM, MgCl2 concentrations of 2.5, 1.5, and 0.5 mM, and pH levels of 6.5, 5.5, and 4.5 were adjusted.” left out

[5] = tested on: Gram-negative bacteria; experiment: Geometric mean MIC and therapeutic index, Gram-negative bacteria; assay type: cell-based; conditions: Gram-negative bacteria; for GM G− (geometric mean of the MIC values): MH broth, MIC >50 µg/mL counted as 100 µg/mL; for Therapeutic Index (TI) G−: HC10/GM
Method: In this study, we aimed to investigate the potential of W5K series peptides for therapeutic use. To evaluate their efficacy for antibacterial therapy, we used the Therapeutic Index (TI) as a measure of their cell selectivity. The TI was calculated as the ratio of the concentration causing 10% hemolysis of human red blood cells (HC10) to the geometric mean minimum inhibitory concentration (GM) of the peptides against both Gram-negative and Gram-positive bacteria. This parameter was used to quantitatively assess the balance between antibacterial potency and cytotoxicity among the W5K derivatives.
as §2

[6] = LYM broth, 0 mM NaCl, 16 h, 37 °C
[7] = LYM broth, 50 mM NaCl, 16 h, 37 °C
[8] = LYM broth, 100 mM NaCl, 16 h, 37 °C
[9] = LYM broth, 200 mM (NaCl), 16 h, 37 °C
[10] = LYM broth, 300 mM (NaCl), 16 h, 37 °C
[11] = MH broth, 5 × 10^5 CFU/mL, 16 h, 37 °C, repeated three times

Ac-KWLKWLAKKKKWR-NH2 [Peptide W5K04]
MIC [1, 6]: 1.56 µg/mL | MIC ([1]; LYM broth, 0.5 mM MgCl2): 1.56 µg/mL | MIC ([1]; LYM broth, 1.5 mM MgCl2): 3.13 µg/mL | MIC ([1]; LYM broth, 2.5 mM MgCl2): 3.13 µg/mL | MIC [1, 7]: 1.56 µg/mL | MIC [1, 8]: 3.13 µg/mL | MIC [1, 9]: 12.5 µg/mL | MIC [1, 10]: 25 µg/mL | MIC ([1]; LYM broth, pH 4.5): 1.56 µg/mL | MIC ([1]; LYM broth, pH 5.5): 1.56 µg/mL | MIC ([1]; LYM broth, pH 6.5): 1.56 µg/mL | MIC [1, 11]: 12.5 µg/mL | MIC [2, 6]: 12.5 µg/mL | MIC ([2]; LYM broth, 0.5 mM MgCl2): 6.25 µg/mL | MIC ([2]; LYM broth, 1.5 mM MgCl2): 12.5 µg/mL | MIC ([2]; LYM broth, 2.5 mM MgCl2): 12.5 µg/mL | MIC [2, 7]: 12.5 µg/mL | MIC [2, 8]: 25 µg/mL | MIC [2, 9]: >50 µg/mL | MIC [2, 10]: >50 µg/mL | MIC ([2]; LYM broth, pH 4.5): 6.25 µg/mL | MIC ([2]; LYM broth, pH 5.5): 6.25 µg/mL | MIC ([2]; LYM broth, pH 6.5): 3.13 µg/mL | MIC [2, 11]: 50 µg/mL | MIC [3, 6]: 3.13 µg/mL | MIC ([3]; LYM broth, 0.5 mM MgCl2): 3.13 µg/mL | MIC ([3]; LYM broth, 1.5 mM MgCl2): 6.25 µg/mL | MIC ([3]; LYM broth, 2.5 mM MgCl2): 6.25 µg/mL | MIC [3, 7]: 6.25 µg/mL | MIC [3, 8]: 25 µg/mL | MIC [3, 9]: 50 µg/mL | MIC [3, 10]: >50 µg/mL | MIC ([3]; LYM broth, pH 4.5): 6.25 µg/mL | MIC ([3]; LYM broth, pH 5.5): 6.25 µg/mL | MIC ([3]; LYM broth, pH 6.5): 3.13 µg/mL | MIC [3, 11]: 25 µg/mL | MIC [4, 6]: 25 µg/mL | MIC ([4]; LYM broth, 0.5 mM MgCl2): 25 µg/mL | MIC ([4]; LYM broth, 1.5 mM MgCl2): 25 µg/mL | MIC ([4]; LYM broth, 2.5 mM MgCl2): 25 µg/mL | MIC [4, 7]: 25 µg/mL | MIC [4, 8]: 50 µg/mL | MIC [4, 9]: >50 µg/mL | MIC [4, 10]: >50 µg/mL | MIC ([4]; LYM broth, pH 4.5): 25 µg/mL | MIC ([4]; LYM broth, pH 5.5): 25 µg/mL | MIC ([4]; LYM broth, pH 6.5): 12.5 µg/mL | MIC [4, 11]: >50 µg/mL | GM G− (geometric mean of the MIC values) [5]: 18.9 µg/mL | Therapeutic Index (TI) G− [5]: 5.7

Ac-KWLAKKKKWRKWL-NH2 [Peptide W5K07]
MIC [1, 6]: 3.13 µg/mL | MIC ([1]; LYM broth, 0.5 mM MgCl2): 3.13 µg/mL | MIC ([1]; LYM broth, 1.5 mM MgCl2): 3.13 µg/mL | MIC ([1]; LYM broth, 2.5 mM MgCl2): 3.13 µg/mL | MIC [1, 7]: 6.25 µg/mL | MIC [1, 8]: 6.25 µg/mL | MIC [1, 9]: 25 µg/mL | MIC [1, 10]: 50 µg/mL | MIC ([1]; LYM broth, pH 4.5): 3.13 µg/mL | MIC ([1]; LYM broth, pH 5.5): 3.13 µg/mL | MIC ([1]; LYM broth, pH 6.5): 3.13 µg/mL | MIC [1, 11]: 12.5 µg/mL | MIC [2, 6]: 6.25 µg/mL | MIC ([2]; LYM broth, 0.5 mM MgCl2): 12.5 µg/mL | MIC ([2]; LYM broth, 1.5 mM MgCl2): 12.5 µg/mL | MIC ([2]; LYM broth, 2.5 mM MgCl2): 25 µg/mL | MIC [2, 7]: 12.5 µg/mL | MIC [2, 8]: 25 µg/mL | MIC [2, 9]: >50 µg/mL | MIC [2, 10]: >50 µg/mL | MIC ([2]; LYM broth, pH 4.5): 12.5 µg/mL | MIC ([2]; LYM broth, pH 5.5): 6.25 µg/mL | MIC ([2]; LYM broth, pH 6.5): 3.13 µg/mL | MIC [2, 11]: 50 µg/mL | MIC [3, 6]: 6.25 µg/mL | MIC ([3]; LYM broth, 0.5 mM MgCl2): 3.13 µg/mL | MIC ([3]; LYM broth, 1.5 mM MgCl2): 6.25 µg/mL | MIC ([3]; LYM broth, 2.5 mM MgCl2): 6.25 µg/mL | MIC [3, 7]: 12.5 µg/mL | MIC [3, 8]: 12.5 µg/mL | MIC [3, 9]: 50 µg/mL | MIC [3, 10]: >50 µg/mL | MIC ([3]; LYM broth, pH 4.5): 6.25 µg/mL | MIC ([3]; LYM broth, pH 5.5): 6.25 µg/mL | MIC ([3]; LYM broth, pH 6.5): 3.13 µg/mL | MIC [3, 11]: >50 µg/mL | MIC [4, 6]: 25 µg/mL | MIC ([4]; LYM broth, 0.5 mM MgCl2): 25 µg/mL | MIC ([4]; LYM broth, 1.5 mM MgCl2): 25 µg/mL | MIC ([4]; LYM broth, 2.5 mM MgCl2): 25 µg/mL | MIC [4, 7]: 25 µg/mL | MIC [4, 8]: 50 µg/mL | MIC [4, 9]: >50 µg/mL | MIC [4, 10]: >50 µg/mL | MIC ([4]; LYM broth, pH 4.5): 25 µg/mL | MIC ([4]; LYM broth, pH 5.5): 25 µg/mL | MIC ([4]; LYM broth, pH 6.5): 12.5 µg/mL | MIC [4, 11]: >50 µg/mL | GM G− (geometric mean of the MIC values) [5]: 21.8 µg/mL | Therapeutic Index (TI) G− [5]: 5.0
